Reference: PMC12844744, “Complexed Linalool with Beta-Cyclodextrin Improve Antihypertensive Activity: Pharmacokinetic and Pharmacodynamic Insights” (Pharmaceuticals, 2025)
Where two headings read alike, the source gives them in different places.

Columns and labels:
[1] = Plasma pharmacokinetics (non-compartmental analysis), healthy Wistar rats; type: in vivo; conditions: NCA, mean ± SD; for Fabs, Absolute bioavailability: 100 mg/kg; for AUC(0-inf): n = 6, read-out: AUC0−∞, Total Area Under the Curve; for MRT: n = 6, read-out: MRT, Mean Residence Time; for k el: n = 6, read-out: ke, elimination rate constant (converted); for half-life: n = 6, read-out: t1/2, half-life (converted)
Protocol: A bioanalytical methodology was developed and validated to quantify LIN in rat plasma using high-performance liquid chromatography with UV detection (HPLC/UV), according to RDC 27/2012 of the National Agency of Sanitary Vigilance, Brazil. Plasma aliquots (100 µL) were extracted with 300 µL of acetonitrile.
The samples were vortexed for 3 min and centrifuged at 13,000× g for 15 min, at 8 °C. The supernatant aliquots were injected into an HPLC instrument (PerkinElmer, Waltham, MA, USA), Flexar™ HPLC model), using reversed-phase column C18 (Nucleosil column 250 mm × 4.6 mm internal diameter, particle size 5 μm (Macherey—Nagel, Versmold, Germany) protected by a guard column with the same material (Hypersil BDS, 10 mm, particle size 5 μm (Thermo Scientific, Waltham, MA, USA) at a temperature of 50 ± 1 °C during the analysis.
The mobile phase was composed of water: acetonitrile (70:30, v/v), at a flow rate of 1 mL/min. LIN was detected at a wavelength of 210 nm, and the peak area was used for the quantitation of samples. The method was precise, sensitive and accurate within the concentration range of 5–100 ng/mL. All samples quantified were between the concentration range, the higher concentrations were diluted to reach the higher linear concentration.
Plasma pharmacokinetic parameters were estimated after administration of 50 mg/kg and 100 mg/kg, i.v. and orally, respectively, of LIN; 100 mg/kg orally of LIN/β-CD, in healthy Wistar rats; and 50 mg/kg of LIN/β-CD, in SHRs.
The animals received the drugs at the above doses through the caudal lateral vein or by oral gavage. Six animals were evaluated per group, as stated in the literature. After administration of the compounds, approximately 200 µL of blood samples were collected from the caudal lateral vein at 0.083, 0.25, 0.5, 1, 1.5, 2, 4, 6, and 8 h. Plasma was separated by centrifugation (6800× g at 8 ± 1 °C for 15 min) and stored at −20 °C until analysis. Non-compartmental analysis (NCA) of the individual concentration-time profiles was performed using Excel® 2016 software (Microsoft Corporation, Redmond, […], USA).
Calculated pharmacokinetic parameters included: the elimination rate constant (ke), absorption rate constant (ka), area under the concentration-time curve from 0 h to infinity (AUC0−∞), clearance (Cltot), half-life (t1/2), the volume of distribution (V), mean residence time (MRT), mean absorption time (MAT), absolute bioavailability (Fabs) and relative bioavailability (Frel). All the pharmacokinetic (PK) parameters were estimated individually aby analyzing the individual PK profiles. Results were expressed as the mean ± SD, and the PK parameters were compared by ANOVA followed by Student’s t-test (α = 0.05).

[2] = Population PK model, intravenous administration in healthy rats; type: in vivo, Wistar rats; conditions: i.v., 2-compartment model, linear elimination, combined error
Protocol: (§1) Population pharmacokinetic analysis was performed using Monolix® Suite 2019R1 software (Lixoft®, Antony, France). Structural models evaluated included 1- and 2-compartment models, first-order absorption, and linear elimination. Different error models were analyzed to explain the variability of the residual error, including a constant, proportional, and combined error model. […] The models were parameterized in V, ka, ke, and distribution constants (k1-2 and k2-1). The parameters were estimated with a stochastic approximation. The object function value (OFV), represented as −2 times the log-likelihood (−2LL) and Akaike Information Criterion (AIC), was used to compare the models.
(§2) The base model for i.v. and oral administration has been established. For oral linalool, after establishing the base model, new models adding the categorical covariates investigated in the study (complexed linalool administered in healthy rats and complexed linalool administered in SHRs) were developed. The visual analysis of the graphs and statistical tests (Pearson’s correlation and ANOVA) were carried out to verify if there is any relationship between the random effects of the parameters (h) and the covariables that could contribute to improving the model.
(§3) The graphs that correlate the plasma concentrations with the predicted individual or population plasma concentrations were evaluated by individual waste distribution charts (IWRES). Also, to evaluate whether simulations performed from the developed model are capable of reproducing the median and the variability of the observed data, a graph was generated to verify the predicted data visual predictive check (VPC).

[3] = Population PK model with covariates, oral administration data; type: in vivo, Wistar rats and SHR
Protocol: as §1, §2, §3

[4] = tested on: spontaneously hypertensive rats (SHR); experiment: Acute intravenous effects on blood pressure and heart rate; type: in vivo, rat; conditions: i.v. 50 mg/kg, n = 5, mean ± S.E.M.
Excerpt: This protocol aimed to evaluate the acute hemodynamic effects of LIN, administered intravenously (i.v.), on blood pressure (BP) and heart rate (HR) in spontaneously hypertensive rats (SHR) and normotensive Wistar rats. Animals were anesthetized with ketamine and xylazine (Cristália), and following trichotomy of the iliac region, polyethylene (PE) catheters were implanted into the femoral artery and vein.
The catheters consisted of PE-10 segments (internal/external diameter: 0.28/0.61 mm) connected to PE-50 catheter (internal/external diameter: 0.58/0.96 mm). To prevent catheter blockage during the hemodynamic recordings, the arterial and venous catheters were implanted pre-filled with a sterile saline–heparin solution (heparin: 100 UI). […]
Following a 24 h recovery period, baseline physiological parameters, including systolic BP (SBP), diastolic BP (DBP), and heart rate, were recorded. BP was continuously monitored via the arterial catheter connected to a pressure transducer (ADInstruments, São Paulo, Brazil). The signal was amplified and digitized at 1 kHz using a PowerLab 8/35 data acquisition system and analyzed with LabChart 8 Pro software (ADInstruments, São Paulo, Brazil). Once cardiovascular parameters stabilized, SBP, DBP, and HR were recorded as baseline control values. […]

[5] = tested on: spontaneously hypertensive rats (SHR); experiment: Acute oral (orogastric) effects on blood pressure and heart rate over 6 h; type: in vivo, rat; conditions: oral 50 mg/kg, monitored 6 h, vs vehicle
[6] = tested on: spontaneously hypertensive rats (SHR); experiment: Chronic 60-day oral treatment: blood pressure and heart rate by tail-cuff plethysmography; type: in vivo, rat; conditions: 50 mg/kg/day p.o., 60 days, vs SHR vehicle
Protocol: (§4) Before starting any treatment, animals were conditioned for one week to minimize stress-related variability in BP and HR measurements. SHRs were randomly assigned to three experimental groups: Group 1 (SHR + Vehicle): Received saline solution (0.1 mL/100 g, p.o.); Group 2 (SHR + LIN): Treated with (-)-linalool (50 mg/kg/day, p.o.); and Group 3 (SHR + LIN/β-CD): Treated with the LIN/β-cyclodextrin inclusion complex (50 mg/kg/day, p.o.). An additional control group of normotensive Wistar rats (Group 4: Wistar + Vehicle) received saline under the same dosing protocol to serve as a baseline.
All treatments were administered orally once daily (between 08:00 and 12:00 h) for a period of 60 days, and cardiovascular assessments were performed with all groups in the afternoon (between 12:00 and 18:00 h), approximately 60 min post-administration. BP and heart rate were measured every five days throughout the treatment period using the tail-cuff plethysmography method (Insight® V2.11, São Paulo, Brazil). Systolic and diastolic blood pressures were measured in triplicate for each animal, and the average of these values was used for data analysis and graphical representation.

[7] = Body weight progression during 60-day treatment; type: in vivo, rat; conditions: 50 mg/kg/day p.o., 60 days
Protocol: as §4

[8] = tested on: isolated superior mesenteric artery rings from SHRs; experiment: Vascular reactivity of isolated superior mesenteric artery rings after 60-day treatment; type: in vivo, rat; conditions: mesenteric rings from SHR treated 50 mg/kg/day 60 days, mean ± S.E.M.
[9] = tested on: spontaneously hypertensive rats (SHR); experiment: Cardiac mass index after 60-day treatment; type: in vivo, rat; conditions: 50 mg/kg/day p.o., 60 days, vs SHR vehicle
Protocol: (§5) After 60 days of treatment period, Wistar and SHRs were euthanized in a carbon dioxide (CO2) chamber. Hearts were carefully excised, and surrounding adipose tissue and vascular structures were meticulously removed. Each heart was weighed using an analytical balance, and the cardiac mass index was calculated by normalizing the heart weight to the total body weight of the animal. A transverse cut was then made, and the left and right ventricles, and thoracic aortas. Both tissues were fixed in 4% formaldehyde for histological processing.

[10] = tested on: spontaneously hypertensive rats (SHR); experiment: Histology of left ventricle and aorta (HE, Picrosirius Red) after 60-day treatment; type: in vivo, rat; conditions: 50 mg/kg/day p.o., 60 days
Protocol: as §5
The hearts and thoracic aortas were fixed in 4% buffered formaldehyde (0.1 M sodium phosphate buffer, pH 7.4), followed by washing in distilled water. Tissue dehydration was carried out in a graded ethanol series of increasing concentrations, ending with absolute ethanol. Samples were then cleared in xylene, embedded in paraffin, and sectioned using a microtome (RM2125RT, Leica®, Wetzlar, Germany) to obtain serial 5 μm sections. […]
Histological evaluation was conducted in a blinded manner. […] Parameters assessed included the presence or absence of inflammatory infiltrates, hemorrhagic areas, and structural alterations such as decreased cardiomyocyte volume, disruption of muscle fiber continuity, loss of transverse striations, sarcoplasmic granulation, contraction bands, and nuclear changes indicative of tissue injury. […]

[11] = set-up: method as in PMID 16596022; conditions: cited from earlier work
[12] = 2-compartment model, first-order absorption, covariates Complex and Complex SHR in V and k12

CL, clearance ([1]; oral 100 mg/kg, n = 6): 84.3 ± 37.8 mL/min/kg
MAT, Mean absorption time ([1]; oral 100 mg/kg, n = 6): 4.69 ± 1.50 h
Vd, Volume of Distribution ([1]; oral 100 mg/kg, n = 6): 16.29 ± 10.73 L/kg
ka, absorption rate constant ([1]; oral 100 mg/kg, n = 6): 0.23 ± 0.07 h⁻¹
Fabs, Absolute bioavailability ([1]; oral 100 mg/kg, n = 6, listed as LIN Free): 0.003 ± 0.001%
Fabs, Absolute bioavailability ([1]; oral 100 mg/kg, n = 6, listed as free LIN): approximately 0.003%
AUC(0-inf) ([1]; rat, plasma, iv, i.v. 50 mg/kg): 25300 ± 18600 ng·h/mL
clearance ([1]; rat, plasma, iv, i.v. 50 mg/kg, n = 6, read-out: CL, clearance (converted)): 50.5 mL/min/kg
MRT ([1]; rat, plasma, iv, i.v. 50 mg/kg): 8.75 ± 4.78 h
Vd ([1]; rat, plasma, iv, i.v. 50 mg/kg, n = 6, read-out: Vd, Volume of Distribution): 25.2 ± 10.4 L/kg
k el ([1]; rat, plasma, iv, i.v. 50 mg/kg): 3.61e-05 s⁻¹
half-life ([1]; rat, plasma, iv, i.v. 50 mg/kg): 6.6 ± 4.04 h
AUC(0-inf) ([1]; rat, plasma, oral 100 mg/kg): 40 ± 20 ng·h/mL
MRT ([1]; rat, plasma, oral 100 mg/kg): 1.97 ± 0.65 h
k el ([1]; rat, plasma, oral 100 mg/kg): 2.5e-05 s⁻¹
half-life ([1]; rat, plasma, oral 100 mg/kg): 8.64 ± 4.44 h
Vd ([2]; Wistar, rat, plasma, iv, 50 mg/kg, read-out: V, volume of distribution (population estimate)): 22.4 L
k el ([2]; Wistar, rat, plasma, iv, 50 mg/kg, read-out: ke, first-order elimination rate (population estimate) (converted)): 0.000101 s⁻¹
k12, distribution constant (population estimate) [2]: 0.461 h⁻¹
k21, distribution constant (population estimate) [2]: 1.05 h⁻¹
V, volume of distribution (population estimate) [3, 12]: 15.28 L
k21, distribution microconstant (population estimate) [3, 12]: 0.0711 h⁻¹
ka, absorption rate constant (population estimate) [3, 12]: 0.226 h⁻¹
k el ([3]; Wistar and SHR, rat, plasma, 2-compartment model, first-order absorption, covariates Complex and Complex SHR in V and k12, read-out: ke, first-order rate elimination (population estimate) (converted)): 4.53e-05 s⁻¹
V (typical population parameter, as given in text) ([3]; final model with covariates): 15.28 L/kg
Aortic histology ([10]; aorta): no signs of vascular remodeling
SMILES: C=CC(C)(O)CCC=C(C)C (stereo not shown) [LIN, 3,7-dimethyl-1,6-octadien-3-ol]
%HR, percent change in heart rate relative to baseline [4]: −54.54 ± 4.84%
%MAP, percent change in mean arterial pressure relative to baseline [4]: −56.64 ± 5.05%
Effect on blood pressure after oral administration [5]: failed to produce any significant antihypertensive effect
Effect on arterial pressure, chronic treatment [6]: significantly reduced arterial pressure
Body weight progression [7]: no significant changes
Emax of contractile response to phenylephrine ([8]; Phe 10^−10 to 10^−5 M, expressed as percentage of KCl 60 mM contraction, in %): 146.72 ± 12.34
Emax of endothelium-independent relaxation to sodium nitroprusside ([8]; SNP 10^−13 to 10^−5 M, percentage of Phe-induced contraction, in %): −121.04 ± 10.45
Emax of endothelium-dependent vasorelaxation to acetylcholine ([8]; in % (unit assumed)): −70.52 ± 6.80
Cardiac mass index (heart weight / body weight) [9]: not observed
Myocardial histology (hematoxylin-eosin) ([10]; left ventricle): preserved myocardial morphology
LogP [11]: ~ 3.3
